These results are taken from paper PMC8466755, “GPCR Pharmacological Profiling of Aaptamine from the Philippine Sponge Stylissa sp. Extends Its Therapeutic Potential for Noncommunicable Diseases” (Molecules, 2021).

Assay [1] has as its target T1, purified 20S proteasome from human erythrocytes (Homo sapiens, UniProt P28074).
T1 construct: purified 20S proteasome from human erythrocyte; purchased Enzo Life Sciences; host or cells: human erythrocytes (tissue-purified)
In words: 20S proteasome chymotrypsin-like activity assay (Suc-LLVY-AMC). Type of assay: biochemical. On the procedure: Aaptamine was tested against HCT116 colon cancer cells and cell viability was assessed after 48 h using an MTT (3-(4,5-dimethyl dimethylthiazol-2-yl)-2,5-diphenyltetrazolium bromide) assay. […] The results agreed with the findings of Kobayashi et al. that aaptamine at concentrations of 20–50 µM increased the expression of the cyclin-dependent kinase inhibitor p21, a protein known to act as a negative regulator of cell cycle progression, thus preventing cell proliferation. […] To alternatively explain the activity of aaptamine, we tested the compound for its ability to inhibit the chymotrypsin-like activity of a purified 20S proteasome from human erythrocytes. Proteasome inhibitors are validated anticancer agents. Aaptamine was able to inhibit the enzyme activity by 41% at 50 µM (Figure 2b). […] In our study, aaptamine had similar IC50 values for cancer cell growth inhibition and proteasome inhibition in vitro (~50 µM).
The 20S proteasome assay kit from Enzo Life Sciences (NY, USA) is a fluorogenic, non-radioactive assay designed to measure the chymotrypsin-like protease activity of purified 20S proteasome from human erythrocyte. […] The fluorescence was then measured at an excitation of 360 nm and emission of 460 nm using a SpectraMax M5 plate reader (Molecular Device). The data were recorded every 2 min for 20 min. […]

The target in assay [2] is T2, CXCR3 (Homo sapiens, UniProt P49682).
T2 sequence (P49682 1-368): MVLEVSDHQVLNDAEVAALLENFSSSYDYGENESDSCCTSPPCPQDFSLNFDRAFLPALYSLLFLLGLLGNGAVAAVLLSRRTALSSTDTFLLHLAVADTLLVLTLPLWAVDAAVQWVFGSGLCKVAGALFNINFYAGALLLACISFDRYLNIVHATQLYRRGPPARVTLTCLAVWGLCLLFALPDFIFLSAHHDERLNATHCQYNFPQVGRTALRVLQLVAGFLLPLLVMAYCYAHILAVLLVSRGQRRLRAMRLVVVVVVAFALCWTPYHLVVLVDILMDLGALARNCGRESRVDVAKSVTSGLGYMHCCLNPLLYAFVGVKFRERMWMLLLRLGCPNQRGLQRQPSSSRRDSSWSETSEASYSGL
In words: PathHunter β-arrestin primary screen, antagonist mode (potentiator hit). Type of assay: cell-based. To be noted: control agonist at EC80, negative inhibition = potentiation, read-out: Primary Screen Maximal Response, % Inhibition or Activation. The method, then:
(§1) Aaptamine (20 µM) was profiled in gpcrMAX panel biosensor assays (in agonist and antagonist modes) against a panel of 168 GPCRs. The assay was performed by DiscoverX Corporation (Fremont, CA) using PathHunter β -arrestin enzyme fragment complementation (EFC) technology, in a similar way to that described elsewhere. The PathHunter cell lines were taken from freezer stocks according to standard procedures. A total of 20 µL of cells were seeded into white 384-well plates and incubated at 37 °C for the appropriate time prior to testing.
(§2) For antagonist determination, PathHunter cells were preincubated with aaptamine followed by the addition of an agonist. In this assay format, the standard agonist was added at an EC80 concentration. To the plate that contained the cells, 5 µL of the 5X sample was added and incubated for 30 min at 37 °C or room temperature. After the incubation period, 5 µL of the 6X EC80 agonist in an assay buffer was added to the cells and incubated for additional 90 or 180 min at 37 °C or room temperature.

For assay [3], the target named is T3, CCR1 (Homo sapiens, UniProt P32246).
T3 sequence (P32246 1-355): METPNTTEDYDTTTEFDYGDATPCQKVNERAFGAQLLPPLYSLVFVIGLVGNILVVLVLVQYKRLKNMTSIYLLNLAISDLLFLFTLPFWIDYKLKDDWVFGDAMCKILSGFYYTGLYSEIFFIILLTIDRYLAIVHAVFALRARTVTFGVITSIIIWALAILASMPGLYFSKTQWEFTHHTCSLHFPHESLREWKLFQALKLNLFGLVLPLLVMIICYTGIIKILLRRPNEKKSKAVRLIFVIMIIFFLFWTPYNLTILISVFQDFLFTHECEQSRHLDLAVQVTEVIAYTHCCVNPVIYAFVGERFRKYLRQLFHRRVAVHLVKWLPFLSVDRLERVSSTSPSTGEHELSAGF
Put plainly: PathHunter β-arrestin assay, agonist mode. Type of assay: cell-based. The method, then:
as §1
For agonist determination, aaptamine was incubated with PathHunter cell lines to induce a response. To increase the concentration, intermediate dilution from 20 µM of aaptamine was performed to generate a 5X sample in an assay buffer. Then, 5 µL of 5X sample was added to the plate with PathHunter cells and incubated for 90 or 180 min at 37 °C or room temperature. The percentage activity of aaptamine was calculated following this formula: % activity = 100% × (mean RLU of test sample − mean RLU of vehicle control)/(mean MAX control ligand − mean RLU of vehicle control).
Hit validation was performed by subjecting the aaptamine to an agonist, antagonist, and positive allosteric modulation (PAM) secondary screen utilizing thirteen GPCR biosensor assays (Arrestin) against the following targets: ADRA2A, ADRA2C, ADRB2, CCR1, CCR3, CXCR3, CXCR7, DRD2L, DRD2S, DRD4, HTR1E, OPRK1, and SSTR1. The assays were performed at 10-point concentrations using three-fold serial dilutions in duplicate. For all the assay formats, the final assay vehicle concentration was 1%.

Assay [4] deals with DRD2S (Homo sapiens, UniProt P14416). In words: PathHunter β-arrestin assay, antagonist mode. Type of assay: cell-based. The method, then:
as §1, §2
Hit validation was performed by subjecting the aaptamine to an agonist, antagonist, and positive allosteric modulation (PAM) secondary screen utilizing thirteen GPCR biosensor assays (Arrestin) against the following targets: ADRA2A, ADRA2C, ADRB2, CCR1, CCR3, CXCR3, CXCR7, DRD2L, DRD2S, DRD4, HTR1E, OPRK1, and SSTR1. […]

For assay [5], the target named is delta opioid receptor (δ-OR, OPRD1). More on the design: method as in PMID 27744679. Particulars: calcium mobilization pathway; read-out: EC50 agonist, delta opioid receptor; cited from earlier work.

Chain of DRD2S (P14416 1-414 isoform P14416-2): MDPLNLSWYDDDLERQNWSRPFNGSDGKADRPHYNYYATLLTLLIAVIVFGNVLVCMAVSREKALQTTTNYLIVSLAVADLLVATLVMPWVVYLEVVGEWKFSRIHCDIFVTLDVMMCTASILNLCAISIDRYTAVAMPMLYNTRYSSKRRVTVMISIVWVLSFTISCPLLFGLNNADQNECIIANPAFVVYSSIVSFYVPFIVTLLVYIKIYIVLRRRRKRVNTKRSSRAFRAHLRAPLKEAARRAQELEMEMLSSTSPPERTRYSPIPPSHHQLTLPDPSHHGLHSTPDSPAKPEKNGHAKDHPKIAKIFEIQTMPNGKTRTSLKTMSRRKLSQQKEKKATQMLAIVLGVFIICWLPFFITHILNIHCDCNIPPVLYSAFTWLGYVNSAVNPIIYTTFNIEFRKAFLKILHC

As for `COc1cc2ccnc3c2c(c1OC)NC=C3` [aaptamine], the inhibition at 50 µM in assay [1] (50 µM, 10 min preincubation, read-out: inhibition of enzyme activity (chymotrypsin-like)) amounted to 41%. Moreover, the IC50 is approximately 50 µM in assay [1] (read-out: IC50 proteasome inhibition in vitro) and 25.7 µM in assay [4] (dose-response, antagonist mode). Moreover, in assay [2], the Emax at 20 µM is 69%. Moreover, the Emax in assay [3] (dose-response analysis, read-out: Dose-Response Maximal Response, % Activation) is 50.2%; in assay [4] (dose-response analysis, read-out: Dose-Response Maximal Response, % Inhibition) it was 74.4%. Also, the EC50 is 11.8 µM in assay [3] (dose-response, agonist mode) and 5.1 µM in assay [5].
